Consider one compound from patent US20070031534A1, “Pet food for reducing food allergy reactions” (priority 2004, published 2007).

In this assay the test system is dogs subject to food allergies. The assay can be described thus: Owner-marked itching scores of dogs subject to food allergies fed with the dog food. The assay is classed as in vivo. The conditions noted are these: case No.1, before feeding with the dog food. How it is done:
A dog food (dog food for food allergy) composed of raw materials as listed in Table 3 and Table 4 below was prepared according to the above Example 1. Dogs subject to food allergies were fed with this dog food and then the itching scores of these dogs were determined.
The following 2 cases are described in detail. (a) Detailed description of case No.1 (i) Changes (−1) in itching scores

Consider `C[C@]12C=CC(=O)C=C1CC[C@@H]1[C@@H]2[C@@H](O)C[C@@]2(C)[C@H]1CC[C@]2(O)C(=O)CO` [predonine], for which the “itching on administration of steroid drug” value is on record as “further suppressed”.
